Measurements as given in article PMC10967270, “Intrapulmonary and Systemic Pharmacokinetics of Colistin Following Nebulization of Low-Dose Colistimethate Sodium in Patients with Ventilator-Associated Pneumonia Caused by Carbapenem-Resistant Acinetobacter baumannii” (Antibiotics, 2024).
Read-outs that look alike come from different tables or passages of the source. Positions of bridges follow the written chain, without caps; N, C: chain ends. Non-standard residues stand in square brackets, D forms with d. Residues, ends and D or L forms follow the SMILES beside them. *: point of attachment. X1 = CC[C@H](C)CCCCC(=O)*; Dab = NCC[C@H](N)C(=O)O

Legend:
[1] = system: A. baumannii; conditions: murine thigh infection model; cited from earlier work
[2] = cited from earlier work; for Maximum ELF concentration, median (IQR): 2 MIU CMS
Description: The observed median (IQR) peak colistin concentration was 21,950 (10,440–28,389) μg/L in the ELF, while that in plasma was 43.51 (14.23–85.78) μg/L. Boisson et al. reported that, regardless of concentration, a significant adsorption of CMS to the mini-BAL device was not observed in studies utilizing the mini-BAL device. They also noted that non-specific adsorption was not significant at a concentration of 6 mg/L. Consequently, it appears from our study that there was no significant adsorption of CMS [23]. […] These studies measured concentrations of both CMS and colistin in the ELF, assuming equal V/fm for CMS and colistin. In our study, the V/fm of colistin in plasma was estimated at 67.4 L, which is much greater than the 13.7 L reported in Boisson et al.. Gkoufa et al. fixed this distribution volume at 13.7 L based on Boisson et al.. The CL/fm of colistin ... || The PK/PD index for colistin is the area under the free colistin concentration-–time curve at steady state over 24 h divided by the pathogen minimum inhibitory concentration (fAUC/MIC). Since we were unable to obtain MIC values for A. baumannii, we evaluated the relationship between the PK and PD of colistin by comparing the fAUC of each patient in accordance with their clinical outcomes and microbiological outcomes. AUC was calculated by dividing the daily dose by patient, which was the individual post hoc Bayesian estimate of the developed PK model. The bioavailability of colistin ...

[3] = cited from earlier work
Description: We investigated whether the fAUC values of individual patients were associated with clinical or microbiological outcomes (Table 3). Using individual estimates of CL derived from the final PK model, we calculated the steady-state fAUC for each patient when a total of 3.75 MIU (=300 mg CMS = 112.5 mg CBA) was administered at 6 h intervals four times a day, using the formula AUC = DOSE/CL. The unbound fraction of colistin was assumed to be 10% [25] in the ELF based on the study by Gkoufa et al. and 34% in the plasma based on the study by Mohamed et al.. Gkoufa et al. presented concentrat ...

[4] = Colistin concentration in epithelial lining fluid (BALF, urea-corrected) after CMS nebulization; assay type: in vivo, human
Description: Patients were treated with CMS (Xellia Pharmaceuticals ApS, Copenhagen, Denmark) at a total of 3.75 MIU (equivalent to 300 mg of CMS or 112.5 mg of CBA) administered four times a day at 6 h intervals. CMS was dissolved in 5 mL of normal saline and administered over 30 min through a jet nebulizer (Sileo 54, Macjin Medical, Seoul, Republic of Korea) connected to the ventilator circuit. Bronchoalveolar lavage fluid (BALF) was obtained by instilling 20 mL of normal saline into the right middle lobe or left lingular segmental bronchus using a bronchoscope, followed by immediate aspiration and collection into a syringe. Samples were collected immediately before the nebulization treatment and at 1, 3, and 5 h after the start of the treatment. Blood samples were collected before the nebulization treatment and at 1, 2, 3, and 5 h thereafter. Both BALF and blood samples were centrifuged at 3000× g for 10 min within 1 h of collection and the supernatant was isolated. Samples were then stored in a refrigerator at a temperature below −70 °C.
A validated liquid chromatography–tandem mass spectrometry assay was used to determine colistin concentrations in BALF and plasma samples. The HPLC equipment consisted of an Agilent 1200 series modular system and an Atlantis C18 column (Company, Waters, Milford, MA, USA) (2.1 mm × 150 mm, 3.0 μm). Mobile phases A and B were water and acetonitrile, respectively. Both phases contained 0.1% formic acid. A gradient elution program was started at 10% B, increased to 35% for 1 min, maintained at this composition for 3.8 min, and returned to the initial composition for 5 min to re-equilibrate the column. Mass spectrometry (MS) was performed using a triple-quadruple mass spectrometer (SCIEX QTRAP5500, Applied Biosystems, Foster City, CA, USA) with an electrospray ionization (ESI) interface. The ESI source was set to positive ionization mode. The parent to product transition (m/z) was 578.483→101.071 for colistin A, 585.453→101.071 for colistin B, and 602.527→101.000 for polymyxin B. Data acquisition and processing were performed using the Analyst software (version 1.7.1; Applied Biosystems, Foster City, CA, USA). Stock solutions of colistin and IS were prepared in deionized water at concentrations of 10 mg/mL, and both were stored at −20 °C. Working solutions of colistin were prepared in deionized water (dilutions of 2, 5, 10, 50, 100, 500, and 1000 μg/mL). Calibration standards were prepared by spiking 247.5 μL of drug-free plasma with 2.5 μL of colistin working solution. Low (colistin A; 11.16 ng/mL, colistin B; 48.84 ng/mL), moderate (colistin A; 186 ng/mL, colistin B; 814 ng/mL), and high (colistin A; 1488 ng/mL, colistin B; 6512 ng/mL) concentrations of QC samples were prepared. Sample pretreatment involved a solid phase extraction. A 250 μL aliquot of plasma was pipetted into a 1.5 mL Eppendorf tube, to which 10 μL of IS (10 μg/mL, polymyxin B) and 740 μL of deionized water were added. This mixture was loaded into a cartridge that had been preconditioned twice with 1 mL of methanol and 1 mL of deionized water. After the plasma mixture was loaded, the cartridge was washed with 1 mL of deionized water. One milliliter of methanol including 0.1% formic acid was used for extraction. Extraction liquid was evaporated by vacuum concentrator (Speedvac, Thermo Fisher Scientific Inc., Waltham, MA, USA) at 45 °C for 2.5 h. Samples were reconstituted in 100 μL deionized water containing 0.1% formic acid. Subsequently, samples were vortexed for 5 min and centrifuged at 13,200 rpm for 10 min, and […] of supernatant was injected into the LC-MS system.
Colistin concentrations, encompassing both colistin A and colistin B, were determined and collectively referred to as “colistin”. The concentration of colistin in the epithelial lining fluid (ELF), termed CELF, was calculated using the formula CELF = CBAL (Ureaplasma/UreaBAL), where CBAL is the colistin concentration measured in BALF. […]

## CC[C@H](C)CCCCC(=O)N[C@@H](CCN)C(=O)N[C@H](C(=O)N[C@@H](CCN)C(=O)N[C@H]1CCNC(=O)[C@H]([C@@H](C)O)NC(=O)[C@H](CCN)NC(=O)[C@H](CCN)NC(=O)[C@H](CC(C)C)NC(=O)[C@@H](CC(C)C)NC(=O)[C@H](CCN)NC1=O)[C@@H](C)O [colistin] (X1-[Dab]T[Dab][Dab][Dab][dL]L[Dab][Dab]T; lactam 4-C)
[1]
  fAUC/MIC target values for a 2 log10 kill: 17.5–43.0 mg/L·h
[2]; jet nebulizer
  Maximum ELF concentration, median (IQR): 7.4 (6.2–10.3) mg/L
[2]; vibrating mesh nebulizer
  Maximum ELF concentration, median (IQR): 10.4 (4.7–22.6) mg/L
[2]; Boisson et al.
  CL/fm of colistin in plasma: 53.1 mL/min
  V/fm of colistin in plasma: 13.7 L
  V/fm of colistin in the ELF: 1.2 mL
[2]; Gkoufa et al.
  CL/fm of colistin in plasma: 128 mL/min
  V/fm of colistin in the ELF: 14.5 mL
[2]; assumed from the literature to calculate the PK/PD index
  Bioavailability of colistin: 9%
[2]; between ELF and plasma, Gkoufa et al.
  Intercompartmental CL/fm: 0.372 mL/min
[3]; assumed, rounded from 0.099 used in simulations by Gkoufa et al.
  Unbound fraction of colistin in the ELF: 10%
[3]; equilibrium dialysis, Mohamed et al.
  Unbound fraction of colistin in plasma, median: 34%
[4]; human, epithelial lining fluid, inhaled or intranasal, 1 h after start (time by position in Figure 1a), CMS 0.9375 MIU nebulized over 30 min, LC-MS/MS, 20 patients, read-out: Median colistin concentration in ELF
  level at 1 h: 11800 ng/mL
[4]; human, epithelial lining fluid, inhaled or intranasal, 3 h after start (time by position in Figure 1a), CMS 0.9375 MIU nebulized over 30 min, LC-MS/MS, 20 patients, read-out: Median colistin concentration in ELF
  level at 3 h: 15400 ng/mL
[4]; human, epithelial lining fluid, inhaled or intranasal, 5 h after start (time by position in Figure 1a), CMS 0.9375 MIU nebulized over 30 min, LC-MS/MS, 20 patients, read-out: Median colistin concentration in ELF
  level at 5 h: 8160 ng/mL
[4]; human, epithelial lining fluid, inhaled or intranasal, at 1 h, median concentrations, nebulized CMS 0.9375 MIU, read-out: Colistin concentration in ELF relative to plasma
  Kp at 1 h: ~614
[4]; human, epithelial lining fluid, inhaled or intranasal, at 3 h, median concentrations, nebulized CMS 0.9375 MIU, read-out: Colistin concentration in ELF relative to plasma
  Kp at 3 h: ~408
[4]; human, epithelial lining fluid, inhaled or intranasal, at 5 h, median concentrations, nebulized CMS 0.9375 MIU, read-out: Colistin concentration in ELF relative to plasma
  Kp at 5 h: ~250
[4]; nebulized CMS 0.9375 MIU over 30 min, monitored over 5 h, 20 patients
  Observed peak colistin concentration in ELF, median (IQR): 21,950 (10,440–28,389) μg/L
